Source: patent publication US20050203187A1, “Formulations useful for the treatment of varicella zoster virus infections and methods for the use thereof” (priority 1998, published 2005)
≈ marks a conversion by molar mass, not a printed value. Entries after “also recorded” stand apart in the source; their conditions may differ. Where two headings read alike, the source gives them in different places.

Assays:
herpes and other viruses = settings: cited from earlier work
[1] = Cytotoxicity in human foreskin fibroblast cells; type: cell-based
Procedure: Human foreskin fibroblast (HFF) cells obtained from newborns were prepared and suspended in minimum essential medium (MEM) and supplemented with 10% fetal bovine serum (FBS). Freshly processed cells were incubated for 24 hours at 37° C. in well tissue culture plates in a CO2 incubator (E. R. Kern, J. Infect. Dis., 128:290 (1973)). Assays for cytotoxicity and varicella zoster virus replication were carried out in these culture wells following reported procedures (see, for example, R. J. Ryback and E. R. Kern et al, Antimicrobial Agents and Chemotherapy, 44:1506 (2000); Y. L. Qiu et al, J. Med. Chem., 41: 10 (1998); and Y. L. Qiu et al, J. Med. Chem., 41: 5257 (1998)). Drug concentrations were diluted six times from 100 μg/ml down to 0.03 μg/ml in MEM/FBS solution. A selective index of 10 is considered significant.

herpes simplex virus-1 = settings: rabbit kidney cell cultures; cited from earlier work
Varicella Zoster Virus [2] = test: Varicella zoster virus replication in cultures of human foreskin fibroblast cells; type: cell-based; settings: for EC50: Human alphaherpesvirus 3, read-out: EC50 effective concentration required to inhibit viral replication by 50%; for EC50 / EC90: VZV in HFF cells; for EC90: Human alphaherpesvirus 3, read-out: EC90 effective concentration required to inhibit viral replication by 90%; for replication of varicella zoster virus in human cell cultures: statement in words
Procedure: (§1) Human foreskin fibroblast (HFF) cells obtained from newborns were prepared and suspended in minimum essential medium (MEM) and supplemented with 10% fetal bovine serum (FBS). […] Drug concentrations were diluted six times from 100 μg/ml down to 0.03 μg/ml in MEM/FBS solution. A selective index of 10 is considered significant.

Varicella zoster virus [3] = test: as above; type: cell-based; settings: human; VZV in HFF cells; read-out: SI selective index of CC50/EC50
Procedure: as §1

[4] = ibuprofen 5%, ketoprofen 3%, lactic acid 5%, testosterone 1% in jojoba alcohol; malic acid 0.8%, citric acid 0.5% lotion; Viracol A Plus one drop
Procedure: Testosterone is a primary male hormone produced in the testes with effects on muscles, bones and sexual function. Testosterone replacement therapy for men with a deficiency, sometimes referred to as hypoganadism, is currently available in topical patches. […] This transdermal delivery technology can also be applied to corresponding estrogenic steroids such as estradiol for women.
(§2) The oil was tested on several persons for relief of minor muscle and joint pains.
(§3) The oil was tested topically on several persons for relief of minor muscle and joint pains.
Malic Acid also known as hydroxysuccinic acid, occurs naturally in apples and is sometimes referred to as apple acid. It is used as a general purpose acidulent in food products.
For the next 8 days […] spread 1-2 drops twice each day on the 2.5 inch diameter outbreak of small blisters on […] arm, and 4-6 drops twice each day on the blisters at […] waist.

[5] = Topical relief of muscle and joint pain in persons; type: in vivo, human; settings: ibuprofen 5%, ketoprofen 3% (2-5%) in jojoba alcohol with 1% alpha-d-tocopherol, several drops
Procedure: Some persons using these medications experience gastrointestinal side effects.
as §2, §3

[6] = tested on: simian immunodeficiency virus (SIV); settings: 12% cream, intravaginal application before exposure, six monkeys tested; cited from earlier work
herpes labialis (HSV-1) = settings: 10% suspended in aqueous system with non-ionic surfactant and carrier; cited from earlier work
varicella zoster virus [7] = test: Shingles episode in a person; settings: oral 400 mg 2×/day

O=C(O)CO [Glycolic Acid]
viral replication inhibition activity in cell cultures (herpes and other viruses): viral replication inhibition activity

O=C(O)/C=C/C(=O)O [Fumaric acid, trans 2-butenedioic acid]
CC50 [1]: > 100 µg/mL
herpes simplex virus-1 replication (herpes simplex virus-1): inhibitors
EC50 (Varicella Zoster Virus [2]): 0.15 µg/mL (≈ 1.29 µM)
EC90 (Varicella Zoster Virus [2]): 0.6 µg/mL (≈ 5.17 µM)
replication of varicella zoster virus in human cell cultures (Varicella Zoster Virus [2]): inhibit replication
selectivity ratio (Varicella zoster virus [3]): > 666
viral replication inhibition activity in cell cultures (herpes and other viruses): viral replication inhibition

O=C(O)CCC(=O)O [Succinic acid, Succinic Acid]
viral replication inhibition activity in cell cultures (herpes and other viruses): viral replication inhibition activity

O=C(O)CC(O)(CC(=O)O)C(=O)O [Citric Acid]
viral replication inhibition activity in cell cultures (herpes and other viruses): viral replication inhibition activity

O=C(O)CC(O)C(=O)O (stereo not drawn) [Malic Acid, hydroxysuccinic acid]
viral replication inhibition activity in cell cultures (herpes and other viruses): viral replication inhibition activity

C[C@]12CC[C@H]3[C@@H](CCC4=CC(=O)CC[C@@]43C)[C@@H]1CC[C@@H]2O [testosterone, Testosterone]
absorption into human skin, residue, irritation [4]: leaves no residue

CC(C)Cc1ccc(C(C)C(=O)O)cc1 (stereo not drawn) [Ibuprofen, alpha-methyl-4(2-methylpropyl)benzeneacetic acid]
pain relief on topical application [5]: successfully relieved pain; also recorded: relieving pain

CC(=O)C(=O)O [Pyruvic acid, Pyruvic Acid]
viral replication inhibition activity in cell cultures (herpes and other viruses): viral replication inhibition activity

CC(O)C(=O)O (stereo not drawn) [Lactic Acid]
viral replication inhibition activity in cell cultures (herpes and other viruses): viral replication inhibition activity

CC(C(=O)O)c1cccc(C(=O)c2ccccc2)c1 (stereo not drawn) [Ketoprofen, 3-benzoyl-alpha-methylbenzeneacetic acid]
pain relief on topical application [5]: relieving pain
pain relief on topical application ([5]; listed as ketoprofen): successfully relieved pain

CCCCCCCCCCCCCCCCCCCCCCO [n-docosanol, n-Docosanol]
monkeys in which transmission was prevented [6]: five
mean healing time of lesions (herpes labialis (HSV-1)): shortened

O=C(O)CC(=O)O [Malonic acid, propanedioic acid]
CC50 [1]: > 100 µg/mL
herpes simplex virus-1 replication (herpes simplex virus-1): inhibitors
EC50 (Varicella Zoster Virus [2]): < 0.03 µg/mL
EC90 (Varicella Zoster Virus [2]): < 0.03 µg/mL
replication of varicella zoster virus in human cell cultures (Varicella Zoster Virus [2]): inhibit replication
selectivity ratio (Varicella zoster virus [3]): > 3330

Nc1nc2c(ncn2COCCO)c(=O)[nH]1 [Acyclovir, reference compound]
side effects (varicella zoster virus [7]): diarrhea and headache
change in shingles (varicella zoster virus [7]; after several days): no change
CC50 ([1]; stationary HFF cells): > 100 µg/mL
EC50 (Varicella Zoster Virus [2]): 0.04 µg/mL (≈ 0.178 µM)
EC90 (Varicella Zoster Virus [2]): 0.09 µg/mL (≈ 0.4 µM)
